System: opioid-dependent subjects
Test: Concentration-QT analysis pooled across clinical studies
Details: concentration-QT model covariate
Method: A concentration QT analysis was performed for the clinical studies conducted with Formulation D. Matching buprenorphine and norbuprenorphine plasma concentrations and 12-lead electrocardiograms (ECGs) were pooled across clinical studies conducted with Formulation D in opioid-dependent subjects. Concentration-QT models were developed to describe the effects of buprenorphine and norbuprenorphine on corrected QT (QTc) interval, after accounting for the effect of relevant concomitant medications and illicit drug use on heart rate and/or QT in opioid-dependent subjects. Data from the following studies were included in the analysis:
Stable doses of SUBUTEX® tablets ranged between 8 and 24 mg depending on the dose cohort.
Twenty subjects received SUBOXONE® film alone.
Subjects were inducted using SUBOXONE® film for 3 days, followed by 4- to 11-day SUBOXONE® film dose adjustment at doses ranging from 8 to 24 mg QD. SUBOXONE® film was tapered in subjects after amendment of study protocol (Day 1: 6 mg, Days 2 and 3: 4 mg, Days 4 and 5: 2 mg).
The following covariates were evaluated on alpha given their potential to affect heart rate: withdrawal symptoms (as measured by Clinical Opiate Withdrawal Scale (COWS)), clonidine and methocarbamol (used to treat withdrawal symptoms), cocaine, phencyclidine, cannabinoids, barbiturates, and methamphetamines (illicit drugs), amphetamines (taken for therapeutic, e.g., attention-deficit/hyperactivity disorder or illicit use), as well as albuterol (known to increase heart rate).
The following covariates were evaluated on QTcAbs: sex, age, opioids known to have an effect on QTc (methadone, oxycodone), opioids that may have an effect on QTc (hydrocodone, morphine, hydromorphone, oxymorphone, heroin, codeine), or opioids (as a general class, with exact type not recorded in CRF), benzodiazepines, barbiturates, triplicate vs single ECG readings, central vs non-centrally read ECGs, and Holter vs non-Holter. Covariates were selected using individual steps of backward elimination. The concentration-related slope was added and the model was refined. Bootstrap and visual predictive checks were conducted to evaluate model performance.
In addition, the bias-corrected two-sided 90% confidence interval of the Delta QTc distribution was determined using the boot package in R (boot( ) function), where an additional nonparametric bootstrap was performed. If the upper limit of the 90% confidence interval was <10 msec, then an effect of Formulation D on QTc was to be ruled out.

Compound	change in QTc associated with concomitant or illicit drug (covariate on QTc)
COC(=O)[C@H]1[C@@H](OC(=O)c2ccccc2)C[C@@H]2CC[C@H]1N2C [cocaine]	+1.7 msec
COc1ccc2c3c1O[C@H]1[C@@H](O)C=C[C@H]4[C@@H](C2)N(C)CC[C@@]341 [codeine]	+1.3 msec
CCC(=O)C(CC(C)N(C)C)(c1ccccc1)c1ccccc1 (stereo not drawn) [methadone]	+6.1 msec
COc1ccc2c3c1O[C@H]1C(=O)CC[C@@]4(O)[C@@H](C2)N(C)CC[C@]314 [oxycodone]	-1.5 ms
c1ccc(C2(N3CCCCC3)CCCCC2)cc1 [phencyclidine]	+3.4 msec

Same assay, conditions: human, in vivo

Compound	change in QTc associated with concomitant or illicit drug (covariate on QTc)
OCCOCCN1CCN(C(c2ccccc2)c2ccc(Cl)cc2)CC1 (stereo not drawn) [hydroxyzine]	+1.7 msec

From patent publication US10646484B2, “Methods to treat opioid use disorder” (Indivior UK Limited, priority 2017, dated 2020)
